≈ marks a conversion by molar mass, not a printed value.
Experiments:
Type in all cases: functional
[1] = tested on: Staphylococcus aureus; experiment: Antibacterial activity against Staphylococcus aureus ATCC 29213 assessed as inhibition of bacterial growth incubated overnight by CLSI protocol based assay; details: read-out: MIC100
[2] = tested on: Staphylococcus aureus; experiment: Antibacterial activity against methicillin susceptible Staphylococcus aureus clinical isolate 1 assessed as inhibition of bacterial growth incubated overnight by CLSI protocol based assay; details: read-out: MIC100
[3] = tested on: Staphylococcus aureus; experiment: Antibacterial activity against methicillin susceptible Staphylococcus aureus clinical isolate 2 assessed as inhibition of bacterial growth incubated overnight by CLSI protocol based assay; details: read-out: MIC100
[4] = tested on: Staphylococcus aureus; experiment: Antibacterial activity against methicillin susceptible Staphylococcus aureus clinical isolate 3 assessed as inhibition of bacterial growth incubated overnight by CLSI protocol based assay; details: read-out: MIC100
[5] = tested on: Staphylococcus aureus; experiment: Antibacterial activity against methicillin susceptible Staphylococcus aureus clinical isolate 4 assessed as inhibition of bacterial growth incubated overnight by CLSI protocol based assay; details: read-out: MIC100
[6] = tested on: Staphylococcus aureus; experiment: Antibacterial activity against methicillin susceptible Staphylococcus aureus clinical isolate 5 assessed as inhibition of bacterial growth incubated overnight by CLSI protocol based assay; details: read-out: MIC100
[7] = tested on: Staphylococcus aureus; experiment: Antibacterial activity against methicillin resistant Staphylococcus aureus clinical isolate 1 assessed as inhibition of bacterial growth incubated overnight by CLSI protocol based assay; details: read-out: MIC100
[8] = tested on: Staphylococcus aureus; experiment: Antibacterial activity against methicillin resistant Staphylococcus aureus clinical isolate 2 assessed as inhibition of bacterial growth incubated overnight by CLSI protocol based assay; details: read-out: MIC100
[9] = tested on: Staphylococcus aureus; experiment: Antibacterial activity against methicillin resistant Staphylococcus aureus clinical isolate 3 assessed as inhibition of bacterial growth incubated overnight by CLSI protocol based assay; details: read-out: MIC100
[10] = tested on: Staphylococcus aureus; experiment: Antibacterial activity against methicillin resistant Staphylococcus aureus clinical isolate 4 assessed as inhibition of bacterial growth incubated overnight by CLSI protocol based assay; details: read-out: MIC100
[11] = tested on: Staphylococcus aureus; experiment: Antibacterial activity against methicillin resistant Staphylococcus aureus clinical isolate 5 assessed as inhibition of bacterial growth incubated overnight by CLSI protocol based assay; details: read-out: MIC100
[12] = tested on: Escherichia coli; experiment: Antibacterial activity against Escherichia coli ATCC 25922 assessed as inhibition of bacterial growth incubated overnight by CLSI protocol based assay; details: read-out: MIC100
[13] = tested on: Pseudomonas aeruginosa; experiment: Antibacterial activity against Pseudomonas aeruginosa ATCC 27853 assessed as inhibition of bacterial growth incubated overnight by CLSI protocol based assay; details: read-out: MIC100
[14] = tested on: Staphylococcus aureus; experiment: Bactericidal activity against Staphylococcus aureus ATCC 29213 incubated overnight by CLSI protocol based assay; details: read-out: MBC>99.9
[15] = tested on: Staphylococcus aureus; experiment: Bactericidal activity against methicillin susceptible Staphylococcus aureus clinical isolate 1 incubated overnight by CLSI protocol based assay; details: read-out: MBC>99.9
[16] = tested on: Staphylococcus aureus; experiment: Bactericidal activity against methicillin susceptible Staphylococcus aureus clinical isolate 2 incubated overnight by CLSI protocol based assay; details: read-out: MBC>99.9
[17] = tested on: Staphylococcus aureus; experiment: Bactericidal activity against methicillin susceptible Staphylococcus aureus clinical isolate 3 incubated overnight by CLSI protocol based assay; details: read-out: MBC>99.9
[18] = tested on: Staphylococcus aureus; experiment: Bactericidal activity against methicillin susceptible Staphylococcus aureus clinical isolate 4 incubated overnight by CLSI protocol based assay; details: read-out: MBC>99.9
[19] = tested on: Staphylococcus aureus; experiment: Bactericidal activity against methicillin susceptible Staphylococcus aureus clinical isolate 5 incubated overnight by CLSI protocol based assay; details: read-out: MBC>99.9
[20] = tested on: Staphylococcus aureus; experiment: Bactericidal activity against methicillin resistant Staphylococcus aureus clinical isolate 1 incubated overnight by CLSI protocol based assay; details: read-out: MBC>99.9
[21] = tested on: Staphylococcus aureus; experiment: Bactericidal activity against methicillin resistant Staphylococcus aureus clinical isolate 2 incubated overnight by CLSI protocol based assay; details: read-out: MBC>99.9
[22] = tested on: Staphylococcus aureus; experiment: Bactericidal activity against methicillin resistant Staphylococcus aureus clinical isolate 3 incubated overnight by CLSI protocol based assay; details: read-out: MBC>99.9
[23] = tested on: Staphylococcus aureus; experiment: Bactericidal activity against methicillin resistant Staphylococcus aureus clinical isolate 5 incubated overnight by CLSI protocol based assay; details: read-out: MBC>99.9
[24] = tested on: Escherichia coli; experiment: Bactericidal activity against Escherichia coli ATCC 25922 incubated overnight by CLSI protocol based assay; details: read-out: MBC>99.9
[25] = tested on: Pseudomonas aeruginosa; experiment: Bactericidal activity against Pseudomonas aeruginosa ATCC 27853 incubated overnight by CLSI protocol based assay; details: read-out: MBC>99.9
[26] = tested on: Staphylococcus aureus; experiment: Bactericidal activity against methicillin resistant Staphylococcus aureus clinical isolate 4 incubated overnight by CLSI protocol based assay; details: read-out: MBC>99.9
[27] = tested on: Staphylococcus aureus; experiment: Antibacterial activity against Staphylococcus aureus assessed as inhibition of bacterial growth

With `O=C(C1=NC[C@H](c2c[nH]c3cc(Br)ccc23)N1)c1c[nH]c2cc(Br)ccc12` (racemic) as the molecule, how does the MIC [1] read?
The MIC was 2 µg/mL (≈ 4.11 µM).

What about the MIC [2] of the same molecule?
Its MIC is 2 µg/mL (≈ 4.11 µM).

And the MIC [3]?
The MIC was 2 µg/mL (≈ 4.11 µM).

What about the MIC [4] of the same molecule?
Its MIC is 2 µg/mL (≈ 4.11 µM).

And the MIC [5]?
Its MIC is 2 µg/mL (≈ 4.11 µM).

What about the MIC [6] of the same molecule?
Its MIC is 2 µg/mL (≈ 4.11 µM).

What about the MIC [7] of the same molecule?
The MIC was 2 µg/mL (≈ 4.11 µM).

What about the MIC [8] of the same molecule?
Its MIC is 2 µg/mL (≈ 4.11 µM).

What about the MIC [9] of the same molecule?
The MIC was 2 µg/mL (≈ 4.11 µM).

And the MIC [10]?
The MIC was 2 µg/mL (≈ 4.11 µM).

And the MIC [11]?
Its MIC is 2 µg/mL (≈ 4.11 µM).

And the MIC [12]?
Its MIC is > 128 µg/mL.

And the MIC [13]?
The MIC was > 128 µg/mL.

And the MBC [14]?
Its MBC is 8 µg/mL (≈ 16.5 µM).

What about the MBC [15] of the same molecule?
The MBC was 32 µg/mL (≈ 65.8 µM).

And the MBC [16]?
Its MBC is > 128 µg/mL.

What about the MBC [17] of the same molecule?
The MBC was > 128 µg/mL.

What about the MBC [18] of the same molecule?
Its MBC is > 128 µg/mL.

What about the MBC [19] of the same molecule?
Its MBC is 128 µg/mL (≈ 263 µM).

And the MBC [20]?
Its MBC is > 128 µg/mL.

And the MBC [21]?
The MBC was 16 µg/mL (≈ 32.9 µM).

And the MBC [22]?
The MBC was 4 µg/mL (≈ 8.23 µM).

And the MBC [23]?
The MBC was 64 µg/mL (≈ 132 µM).

What about the MBC [24] of the same molecule?
Its MBC is > 128 µg/mL.

And the MBC [25]?
Its MBC is > 128 µg/mL.

How did the MIC [1] turn out when `Brc1ccc2c(C(C3=NC[C@H](c4c[nH]c5cc(Br)ccc45)N3)c3c[nH]c4cc(Br)ccc34)c[nH]c2c1` was run?
The MIC was 2 µg/mL (≈ 3 µM).

And the MIC [2]?
The MIC was 1 µg/mL (≈ 1.5 µM).

And the MIC [3]?
Its MIC is 2 µg/mL (≈ 3 µM).

And the MIC [4]?
Its MIC is 2 µg/mL (≈ 3 µM).

And the MIC [5]?
The MIC was 2 µg/mL (≈ 3 µM).

What about the MIC [6] of the same molecule?
Its MIC is 2 µg/mL (≈ 3 µM).

And the MIC [7]?
The MIC was 2 µg/mL (≈ 3 µM).

What about the MIC [8] of the same molecule?
The MIC was 1 µg/mL (≈ 1.5 µM).

And the MIC [9]?
Its MIC is 2 µg/mL (≈ 3 µM).

And the MIC [10]?
The MIC was 2 µg/mL (≈ 3 µM).

What about the MIC [11] of the same molecule?
The MIC was 1 µg/mL (≈ 1.5 µM).

What about the MIC [12] of the same molecule?
Its MIC is 16 µg/mL (≈ 24 µM).

What about the MIC [13] of the same molecule?
The MIC was > 128 µg/mL.

What about the MBC [14] of the same molecule?
The MBC was 4 µg/mL (≈ 6 µM).

And the MBC [15]?
The MBC was 16 µg/mL (≈ 24 µM).

And the MBC [16]?
Its MBC is 2 µg/mL (≈ 3 µM).

And the MBC [17]?
The MBC was 16 µg/mL (≈ 24 µM).

And the MBC [18]?
Its MBC is 128 µg/mL (≈ 192 µM).

What about the MBC [19] of the same molecule?
Its MBC is 64 µg/mL (≈ 96.1 µM).

What about the MBC [20] of the same molecule?
The MBC was 128 µg/mL (≈ 192 µM).

What about the MBC [21] of the same molecule?
The MBC was 16 µg/mL (≈ 24 µM).

And the MBC [22]?
Its MBC is 2 µg/mL (≈ 3 µM).

What about the MBC [26] of the same molecule?
The MBC was 16 µg/mL (≈ 24 µM).

What about the MBC [23] of the same molecule?
The MBC was 2 µg/mL (≈ 3 µM).

And the MBC [24]?
The MBC was 32 µg/mL (≈ 48 µM).

What about the MBC [25] of the same molecule?
The MBC was > 128 µg/mL.

And the MIC [27]?
The MIC was 1 µg/mL (≈ 1.5 µM).
